In patent publication US4684664A, “Derivatives of β-(4-isocyano-1,2,3,4-diepoxycyclopentyl) acrylic acid” (Kureha Kagaku Kogyo Kabushiki Kaisha, priority 1984, dated 1987):
≈ marks a conversion by molar mass, not a printed value.

How the values were obtained:
Assay type in all cases: cell-based
[1] = test system: Staphylococcus aureus FDA 209PJc-1; experiment: Antibacterial activity, agar-dilution MIC, organism No. 1; details: for MIC: Staphylococcus aureus, FDA209PJC1, read-out: Minimum Inhibitory Concentration
How it was run: (§1)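 Read-out is the minimum inhibitory concentration, given as μg/ml of the culture medium, obtained by agar dilution using bouillon agar.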

[2] = test system: Staphylococcus aureus Terajima; experiment: Antibacterial activity, agar-dilution MIC, organism No. 2; details: for MIC: Staphylococcus aureus, read-out: Minimum Inhibitory Concentration
How it was run: as §1

[3] = test system: Staphylococcus aureus MS 353; experiment: Antibacterial activity, agar-dilution MIC, organism No. 3; details: for MIC: Staphylococcus aureus, MS353, read-out: Minimum Inhibitory Concentration
How it was run: as §1

[4] = test system: Streptococcus pyogenes Cook; experiment: Antibacterial activity, agar-dilution MIC, organism No. 4; details: for MIC: Streptococcus pyogenes, read-out: Minimum Inhibitory Concentration
How it was run: as §1

[5] = test system: Escherichia coli NIHJ-JC-2; experiment: Antibacterial activity, agar-dilution MIC, organism No. 5; details: for MIC: Escherichia coli, NIHJJC2, read-out: Minimum Inhibitory Concentration
How it was run: as §1

[6] = test system: Escherichia coli K12 C600 IAM 1264; experiment: Antibacterial activity, agar-dilution MIC, organism No. 6; details: for MIC: Escherichia coli, IAM1264, read-out: Minimum Inhibitory Concentration
How it was run: as §1

[7] = test system: Klebsiella pneumoniae PCI-602; experiment: Antibacterial activity, agar-dilution MIC, organism No. 7; details: for MIC: Klebsiella pneumoniae, PCI602, read-out: Minimum Inhibitory Concentration
How it was run: as §1

[8] = test system: Salmonella typhimurium IID 971; experiment: Antibacterial activity, agar-dilution MIC, organism No. 8; details: for MIC: Salmonella enterica, read-out: Minimum Inhibitory Concentration
How it was run: as §1

[9] = test system: Salmonella typhi 901; experiment: Antibacterial activity, agar-dilution MIC, organism No. 9; details: for MIC: Salmonella enterica, TYPHI, read-out: Minimum Inhibitory Concentration
How it was run: as §1

[10] = test system: Salmonella paratyphi-A 1015; experiment: Antibacterial activity, agar-dilution MIC, organism No. 10; details: for MIC: Salmonella enterica, PARATYPHI, read-out: Minimum Inhibitory Concentration
How it was run: as §1

[11] = test system: Salmonella shottmuelleri 8006; experiment: Antibacterial activity, agar-dilution MIC, organism No. 11; details: for MIC: Salmonella, 8006, read-out: Minimum Inhibitory Concentration
How it was run: as §1

[12] = test system: Salmonella enteritidis G 14; experiment: Antibacterial activity, agar-dilution MIC, organism No. 12; details: for MIC: Salmonella enterica, ENTERITIDIS, read-out: Minimum Inhibitory Concentration
How it was run: as §1

[13] = test system: Serratia marcescens IAM 1184; experiment: Antibacterial activity, agar-dilution MIC, organism No. 13; details: for MIC: Serratia marcescens, IAM1184, read-out: Minimum Inhibitory Concentration
Source text: Agar-dilution method was used for determination of the antibacterial activity and antifungal activity while using bouillon-agar culture medium, and the minimum inhibitory concentration of the specimen was expressed by μg/ml of the culture medium.

[14] = test system: Bacillus subtilis ATCC 6633; experiment: Antibacterial activity, agar-dilution MIC, organism No. 14; details: for MIC: Bacillus subtilis, ATCC6633, read-out: Minimum Inhibitory Concentration
How it was run: as §1

[15] = test system: Pseudomonas aeruginosa IFO 3445; experiment: Antibacterial activity, agar-dilution MIC, organism No. 15; details: for MIC: Pseudomonas aeruginosa, IFO3445, read-out: Minimum Inhibitory Concentration
How it was run: as §1

[16] = test system: Pseudomonas aeruginosa NCTC 10490; experiment: Antibacterial activity, agar-dilution MIC, organism No. 16; details: for MIC: Pseudomonas aeruginosa, NCTC10490, read-out: Minimum Inhibitory Concentration
How it was run: as §1

[17] = test system: Pseudomonas aeruginosa PAO 1; experiment: Antibacterial activity, agar-dilution MIC, organism No. 17; details: for MIC: Pseudomonas aeruginosa, PAO1, read-out: Minimum Inhibitory Concentration
How it was run: as §1

[18] = test system: Proteus morganii IFO 3848; experiment: Antibacterial activity, agar-dilution MIC, organism No. 18; details: for MIC: Morganella morganii, IFO3848, read-out: Minimum Inhibitory Concentration
How it was run: as §1

[19] = test system: Proteus mirabilis IFO 3849; experiment: Antibacterial activity, agar-dilution MIC, organism No. 19; details: for MIC: Proteus mirabilis, IFO3849, read-out: Minimum Inhibitory Concentration
How it was run: as §1

[20] = test system: Proteus vulgaris OX-19; experiment: Antibacterial activity, agar-dilution MIC, organism No. 20; details: for MIC: Proteus vulgaris, OX19, read-out: Minimum Inhibitory Concentration
How it was run: as §1

[21] = test system: Proteus vulgaris HX-19; experiment: Antibacterial activity, agar-dilution MIC, organism No. 21; details: for MIC: Proteus vulgaris, HX19, read-out: Minimum Inhibitory Concentration
How it was run: as §1

[22] = test system: Proteus rettgeri IFO 3850; experiment: Antibacterial activity, agar-dilution MIC, organism No. 22; details: for MIC: Providencia rettgeri, IFO3850, read-out: Minimum Inhibitory Concentration
How it was run: as §1

[23] = test system: Enterobacter aerogenes ATCC 13048; experiment: Antibacterial activity, agar-dilution MIC, organism No. 23; details: for MIC: Klebsiella aerogenes, ATCC13048, read-out: Minimum Inhibitory Concentration
How it was run: as §1

[24] = test system: Enterobacter cloacae 963; experiment: Antibacterial activity, agar-dilution MIC, organism No. 24; details: for MIC: Enterobacter cloacae, 963, read-out: Minimum Inhibitory Concentration
How it was run: as §1

[25] = test system: Micrococcus luteus ATCC 9341; experiment: Antibacterial activity, agar-dilution MIC, organism No. 25; details: for MIC: Micrococcus luteus, ATCC9341, read-out: Minimum Inhibitory Concentration
How it was run: as §1

[26] = test system: Streptococcus pyogenes IFO 3340; experiment: Antibacterial activity, agar-dilution MIC, organism No. 26; details: for MIC: Streptococcus pyogenes, IFO3340, read-out: Minimum Inhibitory Concentration
How it was run: as §1

[27] = test system: Streptococcus faecium IFO 3826; experiment: Antibacterial activity, agar-dilution MIC, organism No. 27; details: for MIC: Enterococcus faecium, IFO3826, read-out: Minimum Inhibitory Concentration
How it was run: as §1

[28] = test system: Candida albicans IAM 4905; experiment: Antifungal activity, agar-dilution MIC, organism No. 29; details: for MIC: Candida albicans, IAM4905, read-out: Minimum Inhibitory Concentration
How it was run: as §1

[29] = test system: Aspergillus niger IFO 6342; experiment: Antifungal activity, agar-dilution MIC, organism No. 30; details: for MIC: Aspergillus niger, IFO6342, read-out: Minimum Inhibitory Concentration
How it was run: as §1

Structure (SMILES): [C-]#[N+]C12CC3(/C=C/C(=O)NCCO)OC3C1O2 (stereo not drawn) [compound 68]
- MIC [1]: 3.13 µg/mL (≈ 13.2 µM)
- MIC [2]: 25 µg/mL (≈ 106 µM)
- MIC [3]: 6.25 µg/mL (≈ 26.5 µM)
- MIC [4]: 200 µg/mL (≈ 847 µM)
- MIC [5]: 25 µg/mL (≈ 106 µM)
- MIC [6]: 25 µg/mL (≈ 106 µM)
- MIC [7]: 200 µg/mL (≈ 847 µM)
- MIC [8]: 25 µg/mL (≈ 106 µM)
- MIC [9]: 6.25 µg/mL (≈ 26.5 µM)
- MIC [10]: 12.5 µg/mL (≈ 52.9 µM)
- MIC [11]: 25 µg/mL (≈ 106 µM)
- MIC [12]: 6.25 µg/mL (≈ 26.5 µM)
- MIC [13]: 100 µg/mL (≈ 423 µM)
- MIC [14]: 100 µg/mL (≈ 423 µM)
- MIC [15]: > 200 µg/mL
- MIC [16]: > 200 µg/mL
- MIC [17]: > 200 µg/mL
- MIC [18]: 6.25 µg/mL (≈ 26.5 µM)
- MIC [19]: 200 µg/mL (≈ 847 µM)
- MIC [20]: 12.5 µg/mL (≈ 52.9 µM)
- MIC [21]: 6.25 µg/mL (≈ 26.5 µM)
- MIC [22]: 200 µg/mL (≈ 847 µM)
- MIC [23]: > 200 µg/mL
- MIC [24]: > 200 µg/mL
- MIC [25]: 6.25 µg/mL (≈ 26.5 µM)
- MIC [26]: 12.5 µg/mL (≈ 52.9 µM)
- MIC [27]: 200 µg/mL (≈ 847 µM)
- MIC [28]: 100 µg/mL (≈ 423 µM)
- MIC [29]: 100 µg/mL (≈ 423 µM)

Structure (SMILES): [C-]#[N+]C12CC3(/C=C/C(=O)NC4OC(COC(C)=O)C(OC(C)=O)C(OC(C)=O)C4OC(C)=O)OC3C1O2 (stereo not drawn) [compound 69]
- Minimum Inhibitory Concentration ([1]; Organism No. 1, bouillon-agar): 100 µg/mL
- Minimum Inhibitory Concentration ([2]; Organism No. 2, bouillon-agar): > 200 µg/mL
- Minimum Inhibitory Concentration ([3]; Organism No. 3, bouillon-agar): 100 µg/mL
- Minimum Inhibitory Concentration ([4]; Organism No. 4, bouillon-agar): > 200 µg/mL
- Minimum Inhibitory Concentration ([5]; Organism No. 5, bouillon-agar): > 200 µg/mL
- Minimum Inhibitory Concentration ([6]; Organism No. 6, bouillon-agar): > 200 µg/mL
- Minimum Inhibitory Concentration ([7]; Organism No. 7, bouillon-agar): > 200 µg/mL
- Minimum Inhibitory Concentration ([8]; Organism No. 8, bouillon-agar): > 200 µg/mL
- Minimum Inhibitory Concentration ([9]; Organism No. 9, bouillon-agar): > 200 µg/mL
- Minimum Inhibitory Concentration ([10]; Organism No. 10, bouillon-agar): 200 µg/mL
- Minimum Inhibitory Concentration ([11]; Organism No. 11, bouillon-agar): > 200 µg/mL
- Minimum Inhibitory Concentration ([12]; Organism No. 12, bouillon-agar): > 200 µg/mL
- Minimum Inhibitory Concentration ([13]; Organism No. 13, bouillon-agar): > 200 µg/mL
- Minimum Inhibitory Concentration ([14]; Organism No. 14, bouillon-agar): > 200 µg/mL
- Minimum Inhibitory Concentration ([15]; Organism No. 15, bouillon-agar): > 200 µg/mL
- Minimum Inhibitory Concentration ([16]; Organism No. 16, bouillon-agar): > 200 µg/mL
- Minimum Inhibitory Concentration ([17]; Organism No. 17, bouillon-agar): > 200 µg/mL
- Minimum Inhibitory Concentration ([18]; Organism No. 18, bouillon-agar): > 200 µg/mL
- Minimum Inhibitory Concentration ([19]; Organism No. 19, bouillon-agar): > 200 µg/mL
- Minimum Inhibitory Concentration ([20]; Organism No. 20, bouillon-agar): > 200 µg/mL
- Minimum Inhibitory Concentration ([21]; Organism No. 21, bouillon-agar): > 200 µg/mL
- Minimum Inhibitory Concentration ([22]; Organism No. 22, bouillon-agar): > 200 µg/mL
- Minimum Inhibitory Concentration ([23]; Organism No. 23, bouillon-agar): > 200 µg/mL
- Minimum Inhibitory Concentration ([24]; Organism No. 24, bouillon-agar): > 200 µg/mL
- Minimum Inhibitory Concentration ([25]; Organism No. 25, bouillon-agar): 100 µg/mL
- Minimum Inhibitory Concentration ([26]; Organism No. 26, bouillon-agar): 50 µg/mL
- Minimum Inhibitory Concentration ([27]; Organism No. 27, bouillon-agar): > 200 µg/mL
- Minimum Inhibitory Concentration ([28]; Organism No. 29, bouillon-agar): 100 µg/mL
- Minimum Inhibitory Concentration ([29]; Organism No. 30, bouillon-agar): 100 µg/mL

Structure (SMILES): [C-]#[N+]C12CC3(/C=C/C(=O)Nc4nc[nH]n4)OC3C1O2 (stereo not drawn) [compound 78]
- MIC [1]: 50 µg/mL (≈ 193 µM)
- MIC [2]: 200 µg/mL (≈ 772 µM)
- MIC [3]: 50 µg/mL (≈ 193 µM)
- MIC [4]: 100 µg/mL (≈ 386 µM)
- MIC [5]: 100 µg/mL (≈ 386 µM)
- MIC [6]: 100 µg/mL (≈ 386 µM)
- MIC [7]: 200 µg/mL (≈ 772 µM)
- MIC [8]: 100 µg/mL (≈ 386 µM)
- MIC [9]: 25 µg/mL (≈ 96.4 µM)
- MIC [10]: 50 µg/mL (≈ 193 µM)
- MIC [11]: 50 µg/mL (≈ 193 µM)
- MIC [12]: 50 µg/mL (≈ 193 µM)
- MIC [13]: > 200 µg/mL
- MIC [14]: 100 µg/mL (≈ 386 µM)
- MIC [15]: > 200 µg/mL
- MIC [16]: > 200 µg/mL
- MIC [17]: > 200 µg/mL
- MIC [18]: 50 µg/mL (≈ 193 µM)
- MIC [19]: 200 µg/mL (≈ 772 µM)
- MIC [20]: 50 µg/mL (≈ 193 µM)
- MIC [21]: 50 µg/mL (≈ 193 µM)
- MIC [22]: 200 µg/mL (≈ 772 µM)
- MIC [23]: > 200 µg/mL
- MIC [24]: > 200 µg/mL
- MIC [25]: 100 µg/mL (≈ 386 µM)
- MIC [26]: 100 µg/mL (≈ 386 µM)
- MIC [27]: 200 µg/mL (≈ 772 µM)
- MIC [28]: > 200 µg/mL
- MIC [29]: 200 µg/mL (≈ 772 µM)
